Results from patent US20240238380A1, “COMPOSITION FOR COMBINATION THERAPY COMPRISING GROWTH DIFFERENTIATION FACTOR-15 VARIANT AND GLUCAGON-LIKE PEPTIDE-1 RECEPTOR AGONIST” (YUHAN CORPORATION, priority 2021, published 2024).
Marks after values point to notes of the source that are not given here.

Columns and labels:
Format in all cases: in vivo
[1] = Anti-obesity and metabolic parameter effects alone and in combination with large dose of semaglutide in ob/ob mice (Example 6); settings: 1 nmol/kg s.c. Q3D
Excerpt: 5-week-old male ob/ob mice (Jackson Laboratory, USA) were purchased from Raon Bio (Animal Inc., Republic of Korea). The ob/ob mice were acclimatized with normal chow or normal chow diet (Teklad Certified Irradiated Global 18% Protein Rodent Diet, 2918C, Harlan Co., USA) for 5 weeks, and drug treatment was started at 10 weeks of age. On the day before drug treatment, the mice were grouped based on the body weight of individual mice and random blood glucose levels determined by sampling at the tail vein (n=6 per group). Thereafter, 1 nmol/kg of FM9-6+Fc_hole alone, 30 nmol/kg of semaglutide alone, and FM9-6+Fc_hole and semaglutide in combination (1+30 nmol/kg) were subcutaneously administered thereto a total of 9 times every 3 days (Q3D), and body weight, food intake, and non-fasting blood glucose were measured every day or every 3 days during the experimental period (24 days). Here, DPBS (Dulbecco's phosphate-buffered saline, Gibco, USA) was administered for vehicle treatment.

[2] = Inhibitory effect on gastric emptying (acetaminophen exposure) in normal rats (Example 8); settings: for AUClast of acetaminophen (μg · min/mL), 3 hr / AUClast of acetaminophen (μg · min/mL), 24 hr / AUClast of acetaminophen (μg · min/mL), 72 hr: rats; for AUClast of acetaminophen (μg · min/mL), 3 hr: acetaminophen 3 hr after dose; for AUClast of acetaminophen (μg · min/mL), 24 hr: acetaminophen 24 hr after dose; for AUClast of acetaminophen (μg · min/mL), 72 hr: acetaminophen 72 hr after dose
Method: Therefore, this example was performed to investigate the inhibitory effect on gastric emptying when the novel long-acting GDF15 fusion protein was administered at the doses equal to the effective dose, higher than the maximum effective dose, or in combination with a GLP-1 receptor agonist to rats. 6-week-old male SD rats (Orient Bio, Republic of Korea) were purchased from Hallym Lab. Animal Inc., Republic of Korea. Animals were acclimated for 7 days. On the day of drug administration, the rats were grouped based on the average body weight of individual rats (n=5 per group) and fasted for at least 6 hours before oral administration of acetaminophen. Then, 0.1, 1, and 10 nmol/kg of FM9-6+Fc_hole, 10 nmol/kg of semaglutide (long-acting GLP-1 derivative, SEQ ID NO: 114), and combination of FM9-6+Fc_hole and semaglutide (1+10 nmol/kg) were subcutaneously administered. The semaglutide was Ozempic® (semaglutide) from Novo NorDisk. As a negative control drug, D-PBS (normal vehicle) was subcutaneously administered, and as a positive control drug, 30 mg/kg of loperamide was orally administered 45 minutes before acetaminophen administration. On 3, 24 and 72 hours after a single dose of the test articles, acetaminophen was orally administered at 100 mg/kg to rats, and blood samples were collected before and at 30, 60, 90, 120 and 150 minutes after acetaminophen administration. The plasma concentration of acetaminophen was analyzed, and the pharmacokinetic profiles and the systemic exposures of acetaminophen were compared to evaluate the inhibitory effect on gastric emptying among the groups.

[3] = Anti-obesity effect alone and in combination with semaglutide or tirzepatide in DIO mice (Example 7); settings: for Change in body weight (%) vs. day 0, Maximum efficacy: 4 weeks
Excerpt: Diet-induced obese (DIO) mice, obtained by feeding mice with high-fat diet, are characterized by obesity, hyperglycemia, and insulin resistance. Diet-induced obese mice (Taconic, USA) resulting from feeding C57BL/6N mice with high-fat food (60 kcal % fat, Research Diets, Cat #D12492, USA) for 8 weeks were purchased from Raon Bio (Animal Inc., Republic of Korea). The diet-induced obese mice were additionally fed with 60% high-fat food for 5 weeks after arrival, and then used in the present test. On the day before drug treatment, the mice were grouped based on the average body weight of individual mice (n=6 per group), after which 0.1 and 1 nmol/kg of FM9-6+Fc_hole alone, 10 nmol/kg of semaglutide (long-acting GLP-1 derivative, SEQ ID NO: 114) and 10 nmol/kg of tirzepatide (long-acting GLP-1/GIP derivative, SEQ ID NO: 117) alone as control drugs, FM9-6+Fc_hole and semaglutide at doses of 0.1+10 and 1+10 nmol/kg in combination, and FM9-6+Fc_hole and tirzepatide at doses of 1+10 nmol/kg in combination were subcutaneously administered thereto every 3 days (Q3D) for a total of 4 weeks. The semaglutide that was used in the test was Ozempic® (semaglutide) from Novo NorDisk, and the tirzepatide that was used was a material synthesized by MedChemExpress (HY-P1731B, USA). Here, DPBS (Dulbecco's phosphate-buffered saline, Gibco, USA) was administered for vehicle treatment, and, during the experimental period (26 days), body weight was measured every day and food intake was measured every 3 days.

[4] = Pharmacokinetics of long-acting GDF15 fusion protein (dimer) in C57BL/6N mice; settings: 1 mg/kg subcutaneous
Method: 6-week-old male C57BL/6N mice (Orient Bio, Republic of Korea) were purchased from Hallym Lab. Animal Inc., Republic of Korea. Animals were acclimated for 7 days, and on the day of drug administration, the mice were grouped based on the average body weight of individual mice (n=3 per blood sampling time per group). Then, FM9-4+Fc_hole, FM9-6+Fc_hole, FM11-4+Fc_hole, and FM11-6+Fc_hole were subcutaneously administered at 1 mg/kg to each group, and blood samples were collected at 4, 24, 48, 72, 96, 120, 168, and 240 hours after administration. Determination of active GDF15 in serum was achieved by enzyme-linked immunosorbent assay (ELISA), and pharmacokinetic parameters of each long-acting GDF15 fusion protein (dimer) are shown in Table 3 below.

## FM9-6 + Fc_hole: long-acting GDF15 fusion protein (dimer): GDF15 ΔN2, S64R, IgG1 Fc_knob/Fc_hole, linker GS(EAAAK)5; SEQ ID NOs: 103 and 47
[1]
  Change in body weight (%) vs. ob/ob control, Efficacy on Day 24: −23.37**** %
  Mean of random blood glucose levels (mg/dL), Efficacy on Day 24: 116.2**** mg/dL
[2]; 0.1 nmol/kg s.c. single dose
  AUClast of acetaminophen (μg · min/mL), 3 hr: 1873.02 µg·min/mL
  AUClast of acetaminophen (μg · min/mL), 24 hr: 2652.42 µg·min/mL
  AUClast of acetaminophen (μg · min/mL), 72 hr: 3054.78 µg·min/mL
[2]; 1 nmol/kg s.c. single dose
  AUClast of acetaminophen (μg · min/mL), 3 hr: 2615.40 µg·min/mL
  AUClast of acetaminophen (μg · min/mL), 24 hr: 1878.30 µg·min/mL
  AUClast of acetaminophen (μg · min/mL), 72 hr: 3526.86 µg·min/mL
[2]; 10 nmol/kg s.c. single dose
  AUClast of acetaminophen (μg · min/mL), 3 hr: 1497.84 µg·min/mL
  AUClast of acetaminophen (μg · min/mL), 24 hr: 2385.36 µg·min/mL
  AUClast of acetaminophen (μg · min/mL), 72 hr: 3100.59 µg·min/mL
[2]; rats, 0.1, 1, and 10 nmol/kg, 3, 24, and 72 hours after administration
  gastric emptying (in words): did not affect gastric emptying
[3]; 0.1 nmol/kg s.c. Q3D
  Change in body weight (%) vs. day 0, Maximum efficacy: −6.75 (On Day 25)** %
  Change in body weight (%) vs. day 0, Efficacy on Day 26: −6.68** %
[3]; 1 nmol/kg s.c. Q3D
  Change in body weight (%) vs. day 0, Maximum efficacy: −16.33 (On Day 23)**** %
  Change in body weight (%) vs. day 0, Efficacy on Day 26: −16.29**** %
[4]
  AUClast: 939.30872 µg·h/mL
  CL/F: 21.8 mL/day/kg
  T1/2,app: 84.28 h
  Tmax: 24 h
[4]; active GDF15 in serum by ELISA
  Cmax: 7.58192 µg/mL
